Where two headings read alike, the source gives them in different places.

Assay [1] deals with T1, Recombinant STAT3 protein (STAT3 (G127-I722)) (Homo sapiens, UniProt P40763).
T1 construct: Recombinant STAT3 protein (STAT3 (G127-I722))
Put plainly: STAT3 Fluorescence Polarization (FP) Assay. The conditions noted are these: probe 5-FAM-GpYLPQTV-NH2 2 nM, 45-minute incubation. It is filed as binding. The essentials:
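Compounds in serial dilution receive a premix of STAT3 (G127-I722, 25 nM) and fluorescent phosphotyrosine peptide 5-FAM-GpYLPQTV-NH2 (2 nM) at pH 7.4. After 45 min at room temperature, FP is measured and IC50 derived by nonlinear regression.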

The target of assay [2] is T2, Recombinant STAT6 protein (STAT6 (W123-T658)) (Homo sapiens, UniProt P42226).
T2 construct: Recombinant STAT6 protein (STAT6 (W123-T658))
T2 sequence (P42226 123-658): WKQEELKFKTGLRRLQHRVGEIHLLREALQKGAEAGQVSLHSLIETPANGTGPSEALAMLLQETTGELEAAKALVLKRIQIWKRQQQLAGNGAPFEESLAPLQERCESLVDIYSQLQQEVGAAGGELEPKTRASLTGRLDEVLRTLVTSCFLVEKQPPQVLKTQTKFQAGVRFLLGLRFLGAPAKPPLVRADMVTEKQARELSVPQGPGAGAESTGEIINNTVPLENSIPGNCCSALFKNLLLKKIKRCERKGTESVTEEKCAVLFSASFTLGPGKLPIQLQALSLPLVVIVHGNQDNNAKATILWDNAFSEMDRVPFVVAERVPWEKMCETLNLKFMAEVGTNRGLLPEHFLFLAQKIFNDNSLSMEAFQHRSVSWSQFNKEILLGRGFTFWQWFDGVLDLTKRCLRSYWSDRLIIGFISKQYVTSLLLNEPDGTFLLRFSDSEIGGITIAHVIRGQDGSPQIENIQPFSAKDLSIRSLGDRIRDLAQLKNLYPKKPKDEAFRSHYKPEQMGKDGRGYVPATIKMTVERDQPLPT
As to the kind of experiment: STAT6 Fluorescence Polarization (FP) Assay. The assay is classed as binding. The conditions noted are these: probe 5-FAM-Ap[…]-NH2 2 nM, 45-minute incubation. The method, boiled down: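 Serially diluted compounds received a premix of STAT6 (W123-T658, 250 nM) and 5-FAM peptide probe (2 nM) in pH 7.4 HEPES buffer containing DTT and Tween 20. Following 45 min at room temperature, FP was recorded. IC50s were fitted by nonlinear regression; values are binned A (≤300 nM), B (>300-3000 nM), C (>3-30 μM), D (>30 μM).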
Background: Fluorescence polarisation rises when a labelled molecule tumbles more slowly, as on binding a larger partner.

Where [3] appears, read: STAT3 25 nM, read-out: STAT3 (FP assay IC50).
Setting [4] is: STAT6 250 nM, read-out: STAT6 (FP assay IC50).
The mark [5] stands for this setting: STAT3 (G127-I722) 25 nM, read-out: STAT3 (FP assay IC50 class).
[6] abbreviates: STAT6 (W123-T658) 250 nM, read-out: STAT6 (FP assay IC50 class).

T1 sequence (P40763 127-722): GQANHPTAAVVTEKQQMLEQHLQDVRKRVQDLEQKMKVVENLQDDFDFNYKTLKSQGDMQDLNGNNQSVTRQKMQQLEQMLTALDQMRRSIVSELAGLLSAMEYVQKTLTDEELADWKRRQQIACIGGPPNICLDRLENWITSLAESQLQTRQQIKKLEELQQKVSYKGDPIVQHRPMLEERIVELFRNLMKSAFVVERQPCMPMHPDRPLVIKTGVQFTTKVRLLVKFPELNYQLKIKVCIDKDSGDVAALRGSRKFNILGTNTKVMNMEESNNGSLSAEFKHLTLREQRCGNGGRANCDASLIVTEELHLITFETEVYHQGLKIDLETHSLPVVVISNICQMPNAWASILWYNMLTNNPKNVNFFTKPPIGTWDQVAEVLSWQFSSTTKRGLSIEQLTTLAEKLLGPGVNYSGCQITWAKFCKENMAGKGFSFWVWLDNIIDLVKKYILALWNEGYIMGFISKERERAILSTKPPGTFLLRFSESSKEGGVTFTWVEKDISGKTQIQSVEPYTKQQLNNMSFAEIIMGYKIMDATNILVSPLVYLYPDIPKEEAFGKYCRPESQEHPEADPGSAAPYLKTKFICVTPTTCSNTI

In the case of `N=S1(=O)CC2(CN(C(=O)[C@@H]3CC[C@@H]4CCCC[C@H](NC(=O)c5cc6cc(C(F)(F)P(=O)(O)O)ccc6s5)C(=O)N43)C2)C1` [Compound 70, (difluoro(2-(((3S,6S,10aS)-3-(2-imino-2-oxido-2l6-thia-6-azaspiro[3.3]heptane-6-carbonyl)-5-oxodecahydropyrrolo [1,2-a]azocin-6-yl)carbamoyl)benzo[b]thiophen-5-yl)methyl) phosphonic acid], the half-maximal inhibitory concentration (IC50) in assay [1] (setting [3]) is 100 to 1000 nM; in assay [2] (setting [4]) it was 3000 to 30000 nM.
For `CCC[C@H]1CC[C@H](NC(=O)c2cc3cc(C(F)P(=O)(O)O)ccc3s2)C(=O)N2[C@H](CC[C@H]2C(=O)N2CC(c3cnccc3OC)C2)C1` (stereo partly drawn) [Compound 247, (fluoro(2-(((3S,6S,9S,10aR)-3-(3-(4-methoxypyridin-3-yl)azetidine-1-carbonyl)-5-oxo-9-propyldecahydropyrrolo[1,2-a]azocin-6-yl)carbamoyl)benzo[b]thiophen-5-yl)methyl)phosphonic acid], the concentration for half-maximal inhibition (IC50) in assay [1] (setting [5]) was < 100 nM; in assay [2] (setting [6]), 3000 to 30000 nM.
For the molecule `O=C(N[C@H]1CCCC[C@H]2CC[C@@H](C(=O)N3C(=O)N(c4cccc5c4OC(F)(F)O5)C(=O)C34CC4)N2C1=O)c1cc2cc(C(F)P(=O)(O)O)ccc2s1` (stereo partly drawn) [Compound 601, ((2-(((3S,6S,10aS)-3-(6-(2,2-difluorobenzo[d][1, 3]dioxol-4-yl)-5,7-dioxo-4,6-diazaspiro[2.4]heptane-4-carbonyl)-5-oxodecahydropyrrolo [1,2-a]azocin-6-yl)carbamoyl)benzo [b]thiophen-5-yl)fluoromethyl) phosphonic acid], the IC50 in assay [1] (setting [5]) is 1000 to 10000 nM; in assay [2] (setting [6]), ≤ 300 nM.
For the molecule `COc1cncc([C@H]2CN(C(=O)[C@@H]3CC[C@@H]4CCC[C@H](NC(=O)c5cc6cc([C@@H](F)P(=O)(O)O)ccc6s5)C(=O)N43)C3(CC3)[C@@H]2C#N)c1` (single isomer, unassigned) [Compound 844], the concentration for half-maximal inhibition (IC50) in assay [1] (setting [5]) was 1000 to 10000 nM; in assay [2] (setting [6]), 300 to 3000 nM.
`O=C(N[C@H]1CCC[C@H]2CC[C@@H](C(=O)N3CC(c4cnccc4OC(F)F)C3)N2C1=O)c1cc2cc(CP(=O)(O)O)ccc2s1` [Compound 632, ((2-(((3S,6S,9aS)-3-(3-(4-(difluoromethoxy)pyridin-3-yl)azetidine-1-carbonyl)-5-oxooctahydro-1H-pyrrolo[1,2-a]azepin-6-yl)carbamoyl)benzo [b]thiophen-5-yl)methyl) phosphonic acid]: the IC50 in assay [1] (setting [5]) lay in the range of 1000 to 10000 nM; in assay [2] (setting [6]), 3000 to 30000 nM.
Take `Cc1ccncc1C1CN(C(=O)[C@@H]2CC[C@@H]3C[C@H](C)C[C@H](NC(=O)c4cc5cc([C@H](F)P(=O)(O)O)ccc5s4)C(=O)N32)C1` (single isomer, unassigned) [Compound 740]: the IC50 was < 100 nM in assay [1] (setting [5]) and 3000 to 30000 nM in assay [2] (setting [6]).
For the molecule `N#CC1(c2ccccn2)CN(C(=O)[C@@H]2CC[C@@H]3CCC[C@H](NC(=O)c4cc5cc(C(F)(F)P(=O)(O)O)ccc5s4)C(=O)N32)C1` [Compound 776, ((2-(((3S,6S,9aS)-3-(3-cyano-3-(pyridin-2-yl)azetidine-1-carbonyl)-5-oxooctahydro-1H-pyrrolo[1,2-a]azepin-6-yl)carbamoyl)benzo [b]thiophen-5-yl)difluoromethyl) phosphonic acid], the 50% inhibitory concentration (IC50) is < 100 nM in assay [1] (setting [5]) and 300 to 3000 nM in assay [2] (setting [6]).
The corresponding values for `O=C(N[C@H]1CCCC[C@H]2CC[C@@H](C(=O)N3CC(Oc4cccnc4)C3)N2C1=O)c1cc2cc(C(F)(F)P(=O)(O)O)ccc2s1` [Compound 724, (difluoro(2-(((3S,6S,10aS)-5-oxo-3-(3-(pyridin-3-yloxy)azetidine-1-carbonyl)decahydropyrrolo[1,2-a]azocin-6-yl)carbamoyl)benzo [b]thiophen-5-yl)methyl) phosphonic acid] are < 100 nM and 300 to 3000 nM.
In the case of `N#C[C@H]1[C@H](c2ccccc2)CN(C(=O)[C@@H]2CC[C@@H]3CCCC[C@H](NC(=O)c4cc5cc(CP(=O)(O)O)ccc5s4)C(=O)N32)C12CC2` [Compound 929, ((2-(((3S,6S,10aS)-3-((6R,7S)-7-cyano-6-phenyl-4-azaspiro[2.4]heptane-4-carbonyl)-5-oxodecahydropyrrolo [1,2-a]azocin-6-yl)carbamoyl)benzo [b]thiophen-5-yl)methyl) phosphonic acid], the values for the IC50 in assay [1] (setting [5]) and in assay [2] (setting [6]) were 1000 to 10000 nM and ≤ 300 nM, respectively.
Take `N#C[C@@H]1CN(C(=O)[C@@H]2CC[C@@H]3CCCC[C@H](NC(=O)c4cc5cc(C(F)(F)P(=O)(O)O)ccc5s4)C(=O)N32)C[C@H]1c1ccccc1` (relative stereo) [Compound 95, ((2-(((3S,6S,10aS)-3-(rel-(trans)-3-cyano-4-phenylpyrrolidine-1-carbonyl)-5-oxodecahydropyrrolo [1,2-a]azocin-6-yl)carbamoyl)benzo[b]thiophen-5-yl)difluoromethyl) phosphonic acid]: the results for the half-inhibitory concentration (IC50) in assay [1] (setting [3]) and in assay [2] (setting [4]) were 100 to 1000 nM and ≤ 300 nM, respectively.
Consider `O=C(N[C@H]1C[C@H](OCc2ccccc2)CC[C@H]2CC[C@@H](C(=O)N3CC(C(=O)N4CCOCC4)C3)N2C1=O)c1cc2cc(C(F)(F)P(=O)(O)O)ccc2s1` [Compound 7, ((2-(((3S,6S,8R, 10aR)-8-(benzyloxy)-3-(3-(morpholine-4-carbonyl)azetidine-1-carbonyl)-5-oxodecahydropyrrolo [1,2-a]azocin-6-yl)carbamoyl)benzo[b]thiophen-5-yl)difluoromethyl) phosphonic acid], for which the IC50 in assay [1] (setting [3]) is 100 to 1000 nM; in assay [2] (setting [4]), 3000 to 30000 nM.
Turning to `N#C[C@@H]1[C@@H](c2cccnc2)CN(C(=O)[C@@H]2CC[C@@H]3CCC[C@H](NC(=O)c4cc5cc([C@H](F)P(=O)(O)O)ccc5s4)C(=O)N32)C12CC2` (single isomer, unassigned) [Compound 833], the half-inhibitory concentration (IC50) in assay [1] (setting [5]) was 1000 to 10000 nM; in assay [2] (setting [6]) it was ≤ 300 nM.
Turning to `O=C(N[C@H]1CCC[C@H]2CC[C@@H](C(=O)N3CC(c4cnccc4F)C3)N2C1=O)c1cc2cc(CP(=O)(O)O)ccc2s1` [Compound 514, ((2-(((3S,6S,9aS)-3-(3-(4-fluoropyridin-3-yl)azetidine-1-carbonyl)-5-oxooctahydro-1H-pyrrolo[1,2-a]azepin-6-yl)carbamoyl)benzo[b]thiophen-5-yl)methyl)phosphonic acid], the IC50 is < 100 nM in assay [1] (setting [5]) and 3000 to 30000 nM in assay [2] (setting [6]).
The corresponding values for `Cn1ccc(N2C(=O)N(C(=O)[C@@H]3CC[C@@H]4CCCC[C@H](NC(=O)c5cc6cc(C(F)P(=O)(O)O)ccc6s5)C(=O)N43)C3(CC3)C2=O)cc1=O` (stereo partly drawn) [Compound 569, (fluoro(2-(((3S,6S,10aS)-3-(6-(1-methyl-2-oxo-1,2-dihydropyridin-4-y1)-5,7-dioxo-4,6-diazaspiro[2.4]heptane-4-carbonyl)-5-oxodecahydropyrrolo[1,2-a]azocin-6-yl)carbamoyl)benzo[b]thiophen-5-yl)methyl)phosphonic acid] are 1000 to 10000 nM and 300 to 3000 nM.
In the case of `O=C(N[C@H]1CCC[C@H]2CC[C@@H](C(=O)Nc3ccc(-c4ccccc4)cc3)N2C1=O)c1cc2cc(C(F)(F)P(=O)(O)O)ccc2s1` [Compound 121, ((2-(((3S,6S,9aS)-3-([1,1′-biphenyl]-4-ylcarbamoyl)-5-oxooctahydro-1H-pyrrolo[1,2-a]azepin-6-yl)carbamoyl)benzo[b]thiophen-5-yl)difluoromethyl) phosphonic acid], the results for the concentration for half-maximal inhibition (IC50) in assay [1] (setting [3]) and in assay [2] (setting [4]) were 100 to 1000 nM and 300 to 3000 nM, respectively.

As a reminder, the IC50 is the concentration needed to halve the response being measured.

(Values after US20250215029A1 (Recludix Pharma, Inc., priority 2022, published 2025).)
